Experimental data published in patent US20130263297A1, “METHODS OF TREATING CANCER” (Cedars-Sinai Medical Center, priority 2010, published 2013).
“Also recorded” adds a separate entry of the source.

What was measured:
RAW 264.7 cells = test: In vitro osteoclastogenesis assay (co-culture of RAW 264.7 osteoclast precursor cells with prostate cancer cells, TRAP staining); assay type: cell-based, mouse
Protocol: The co-cultures of osteoclast precursor cells (RAW 264.7 cells) and prostate cancer cells were performed in 48-well plate containing 500 μl of α-MEM media supplemented with 10% FBS and were set up in quadruplicates. Osteoclast precursor cells were seeded with prostate cancer cells in an 8:1 ratio (15,000 RAW 264.7 cells and 1,875 prostate cancer cells) per well. Recombinant mouse RANKL (100 ng/ml, provided by Dr. Xu Feng), was added to the assay as the positive control. Additionally, recombinant OPG (1 μg/ml) was added to designated wells to block RANKL-mediated increased osteoclastogenesis. The cells were checked under the microscope daily from day-4 to day-7. Cells were fixed and subjected to tartrate-resistant acid phosphatase (TRAP) staining (Sigma-Aldrich, Inc., St. Louis, Mo.). TRAP^+ multinucleated cells (3 nuclei) in the entire well were counted as mature osteoclasts and the images were taken under light microscopy.

LNCaP cells = test: EMT marker / RANKL expression and signaling by RT-PCR and Western blot, LNCaP model; assay type: cell-based, human
Protocol: Total RNA from cells was isolated using RNeasy Mini Kit (Qiagen, Valencia, Calif.) according to manufacturer's instructions. Complementary DNA (cDNA) was generated from 3 μg of total RNA using SuperScript® III First-Strand Synthesis System (Invitrogen, Carlsbad Calif.), and 1 μl of cDNA was subjected to PCR analyses using the following primers: RANKL F: 5′-TGGATCACAGCACATCAGAGCAG-3′ (SEQ ID NO:3); RANKL R: 5′-TGGGGCTCAATCTATATCTCGAAC-3′ (SEQ ID NO:4); RANK F: 5′-GGGAAAGCACTCACAGCTAATTTG-3′ (SEQ ID NO:5); RANK R: 5′-GCACTGGCTTAAACTGTCATTCTCC-3′ (SEQ ID NO:6); OPG F: 5′-GCT AAC CTC ACC TTC GAG-3′ (SEQ ID NO:7); OPG R: 5′-TGA TTG GAC CTG GTT ACC-3′ (SEQ ID NO:8); E-cadherin F: 5′-GCCAAGCAGCAGTACATTCTACACG-3′ (SEQ ID NO:9); E-cadherin R: 5′-GCTGTTCTTCACGTGCTCAAAATCC-3′ (SEQ ID NO:10); N-cadherin F: 5′-GATGTTGAGGTACAGAATCGT-3′ (SEQ ID NO:11); N-cadherin R: 5′-GGT CGG TCT GGA TGG CGA-3′ (SEQ ID NO:12); Snail F: 5′-CAGACCCACTCAGATGTCAA-3′ (SEQ ID NO:13); Snail R: 5′-CATAGTTAGTCACACCTCGT-3′ (SEQ ID NO:14); Vimentin F: 5′-GGA CTC GGT GGA CTT CTC-3′ (SEQ ID NO:15); Vimentin R: 5′-CGC ATC TCC TCC TCG TAG-3′ (SEQ ID NO:16). The PCR reaction cycles involved an initial denaturation at 94° C. for 10 min, followed by 36 cycles of 94° C., 1 min; 55° C., 30 sec for RANKL and RANK and 48° C., 1 min for OPG; 72° C., 1 min and a final extension at 72° C. for 10 min. For E-cadherin and N-cadherin gene amplification, the PCR reactions ran for a total of 32 cycles and the annealing temperature was 55° C. and 47° C., respectively for 30 sec. For Snail, Vimentin, and GAPDH amplification, the PCR reactions ran for a total of 28 cycles with annealing temperatures at 48° C. for 30 sec. The amplified PCR products were detected and analyzed on 1% agarose gel.
ARCaPE and LNCaP cells were cultured in 6-well plate and at 70% confluency, the cells were serum-starved overnight and then treated with 200 ng/ml of trimerized RANKL in serum-free and phenol-red free RPMI-1640 medium for three days before harvesting the cells. ARCaPE-RANKL and LNCaP-RANKL cells were cultured in 6-well plate and treated with 20 μM of LY294002, a PI3K inhibitor, 20 μM of SB203580, an inhibitor of MAP kinase reactivating kinase, or 2 μM of PS341 (bortezomib), a proteasome inhibitor, at 90% confluency for four hours. Cells were lysed in RIPA buffer containing 1× protease inhibitor cocktail (Thermo Fisher Scientific, Waltham, Mass.) and centrifuged, and the supernatants were collected and quantified using Bradford Protein Assay (Thermo Fisher Scientific, Waltham, Mass.). Cell lysates (20-30 μg) were resolved on a 4-12% Bis-Tris gradient SDS-PAGE (Invitrogen, Carlsbad, Calif.) under reducing conditions, followed by transblotting onto nitrocellulose membrane (BioRad, Hercules, Calif.). The membranes were blocked in 5% non-fat milk in PBST for one hour at room temperature (RT) and incubated with diluted primary antibodies in blocking buffer at 4° C. overnight. The primary antibodies used were RANKL, E-cadherin, vimentin, and OPG (Santa Cruz Biotechnology, Inc., Santa Cruz, Calif.), RANK (Amgen, Thousand Oaks, Calif.), N-cadherin (BD Transduction Laboratories, San Jose, Calif.), phosphor-Akt (Ser 473), Akt, phosphor-p38 (Thr180/Tyr182), p38, phosphor-ERK1/2 (Thr202/Tyr204), ERK, phosphor-SAPK/JNK (Thr183/Tyr185), JNK, phosphor-NF-κB p65 (Ser536), and NF-κB p65 (Cell Signaling Technology, Danvers, Mass.). The membranes were washed with PBST for three times before incubating with peroxidase-conjugated anti-mouse or anti-rabbit secondary antibodies at RT for one hour. After three times washing, the membranes were visualized using ECL Plus reagent (GE Healthcare, Piscataway, N.J.).

cMet in LNCaP cells = test: cMet expression and phosphorylation (Western blot), LNCaP; assay type: cell-based, human
[1] = test system: cMet transcriptional activity; test: cMet promoter reporter assay; assay type: cell-based
ARCaPE-RANKL cells = test: Soft agar (anchorage-independent) colony formation, ARCaPE-RANKL; assay type: cell-based, human; conditions: addition of OPG
LNCaP-RANKL cells = test: Soft agar (anchorage-independent) colony formation, LNCaP-RANKL; assay type: cell-based, human; conditions: addition of OPG
[2] = test system: RANKL-expressing prostate cancer cells; test: Stem cell and neuroendocrine marker expression; assay type: cell-based

Row | Molecule | formation of mature osteoclasts induced by ARCaPE-RANKL and LNCaP-RANKL cells (RAW 264.7 cells; addition of OPG (1 μg/ml) to co-culture with RAW264.7) | osteoclastogenesis induced by Neo-transfected control cells (RAW 264.7 cells; addition of OPG to co-culture with RAW264.7) | RANKL-induced RANKL expression in LNCaP cells (LNCaP cells; addition of OPG) | RANKL-induced biochemical EMT changes in LNCaP cells (LNCaP cells; addition of OPG) | RANKL- or HGF-induced cMet expression and phosphorylation in LNCaP cells (cMet in LNCaP cells; OPG (vs RANKL) or anti-HGF antibody (vs HGF) treatment) | RANKL up-regulated cMet transcriptional activity ([1]; OPG treatment) | soft agar colony formation (tumorigenicity) of ARCaPE-RANKL cells (ARCaPE-RANKL cells) | soft agar colony formation (tumorigenicity) of LNCaP-RANKL cells (LNCaP-RANKL cells) | expression of neuroendocrine markers [2] | expression of stem cell markers [2] | RANKL expression at mRNA and protein levels in LNCaP cells (LNCaP cells; RANKL treatment) | nuclear levels of cMyc and Max in LNCaP cells (LNCaP cells; RANKL-treated versus LNCaP cells) | induction of EMT (EMT-specific markers) in LNCaP cells (LNCaP cells; exogenously added RANKL, 200 ng/ml) | phosphorylation of PI3K/Akt, P38 and NFκB proteins in parental LN cells (LNCaP cells; treated with RANKL protein) | cMet expression and phosphorylated level of cMet in LNCaP cells (cMet in LNCaP cells; exogeneous RANKL or HGF treatment) | cMet transcriptional activity ([1]; RANKL treatment)
1 | osteoprotegerin [OPG] | blocked; also recorded: decreased by approximately two-fold | very minimal blocking effects | attenuated | abolished | abrogated | attenuated | attenuated | attenuated | blocked | antagonized |  |  |  |  |  | 
2 | RANKL: trimerized recombinant RANKL protein (rRANKL), receptor activator of NF-KB ligand (protein, UniProt O14788 69-317, looked up, extracellular domain trimerized) extracellular domain: YFRAQMDPNRISEDGTHCIYRILRLHENADFQDTTLESQDTKLIPDSCRRIKQAFQGAVQKELQHIVGSQHIRAEKAMVDGSWLDLAKRSKLEAQPFAHLTINATDIPSGSHKVSLSSWYHDRGWAKISNMTFSNGKLIVNQDGFYYLYANICFRHHETSGDLATEYLQLMVYVTKTSIKIPSSHTLMKGGSTKYWSGNSEFHFYSINVGGFFKLRSGEEISIEVSNPSLLDPDQDATYFGAFKVRDID |  |  |  |  |  |  |  |  |  |  | induced; also recorded: up-regulated | higher | confirmed; also recorded: decreased epithelial marker E-cadherin and increased mesenchymal marker vimentin, N-cadherin, and Snail | elevated | significantly increased | up-regulated
